Measurements reported in BindingDB's records for doi:10.1021/ml200206z (2011).

Target: T1, 5-hydroxytryptamine receptor 2C (Homo sapiens, UniProt P28335)
T1 sequence (P28335 whole entry): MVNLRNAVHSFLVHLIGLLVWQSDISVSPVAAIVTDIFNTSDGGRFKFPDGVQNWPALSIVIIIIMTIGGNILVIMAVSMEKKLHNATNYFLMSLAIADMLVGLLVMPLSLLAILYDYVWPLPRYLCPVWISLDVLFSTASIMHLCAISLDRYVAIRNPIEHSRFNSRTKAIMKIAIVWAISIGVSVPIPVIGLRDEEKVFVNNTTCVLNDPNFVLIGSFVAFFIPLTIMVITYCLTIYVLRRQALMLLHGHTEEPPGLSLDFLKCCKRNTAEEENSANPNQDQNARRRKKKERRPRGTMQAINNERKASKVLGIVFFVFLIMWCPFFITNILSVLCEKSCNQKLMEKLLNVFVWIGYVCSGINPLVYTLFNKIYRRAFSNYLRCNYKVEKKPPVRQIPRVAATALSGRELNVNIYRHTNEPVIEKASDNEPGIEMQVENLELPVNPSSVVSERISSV
Assay: Agonist activity at human 5HT2C receptor expressed in HEK293 cells assessed as calcium flux measured every sec for 3 mins by FLIPR assay

Work on `NC[C@H]1C[C@@H]1c1ccccc1OCC1CC1` yielded an EC50 of 0.12 µM.
